According to PubChem BioAssay (NCI):
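All cell lines were grown in 96-well plates and treated with compound for 48 hours. The concentration for full growth arrest is given as TGI.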 *1 amine or outer side, *2 acyl side, *3 side chain or, on linkers, in order; H or OH if unused. Where a SMILES comes first, the peptide text is derived from it. Bridges are numbered along the chain shown (N, C = ends). Roman numbers before positions name the chains, in order. [ ]: non-standard residue; d: D form. Actinocin(9to1) = Cc1c2oc3c(C)ccc(C(=O)[*:1])c3nc-2c(C(=O)[*:2])c(N)c1=O; Hyp = O=C(O)[CH]1C[CH](O)CN1; NMeV = CN[CH](C(=O)O)C(C)C; Sar = CNCC(=O)O

Tests used:
Experiment in all cases: growth of human tumour cells (NCI), 48 h
SK-OV-3 ovarian = tested on: SK-OV-3 ovarian
SF-295 CNS = tested on: SF-295 CNS
SK-MEL-5 melanoma = tested on: SK-MEL-5 melanoma
NCI/ADR-RES ovarian = tested on: NCI/ADR-RES ovarian
OVCAR-8 ovarian = tested on: OVCAR-8 ovarian
HS 578T breast = tested on: HS 578T breast
MDA-MB-435 = tested on: MDA-MB-435
CCRF-CEM leukemia = tested on: CCRF-CEM leukemia
SNB-19 CNS = tested on: SNB-19 CNS
A549 NSCLC = tested on: A549 NSCLC
OVCAR-5 ovarian = tested on: OVCAR-5 ovarian
MCF7 breast = tested on: MCF7 breast
MALME-3M melanoma = tested on: MALME-3M melanoma
NCI-H522 lung = tested on: NCI-H522 lung
PC-3 prostate = tested on: PC-3 prostate

| Compound | TGI (SK-OV-3 ovarian) [µM] | TGI (SF-295 CNS) [µM] | TGI (SK-MEL-5 melanoma) [µM] | TGI (NCI/ADR-RES ovarian) [µM] | TGI (OVCAR-8 ovarian) [µM] | TGI (HS 578T breast) [µM] | TGI (MDA-MB-435) [µM] | TGI (CCRF-CEM leukemia) [µM] | TGI (SNB-19 CNS) [µM] | TGI (A549 NSCLC) [µM] | TGI (OVCAR-5 ovarian) [µM] | TGI (MCF7 breast) [µM] | TGI (MALME-3M melanoma) [µM] | TGI (NCI-H522 lung) [µM] | TGI (PC-3 prostate) [µM] |
| --- | --- | --- | --- | --- | --- | --- | --- | --- | --- | --- | --- | --- | --- | --- | --- |
| c1ccc(Nc2nn3c(CCCCCCCCc4nnc5sc(Nc6ccccc6)nn45)nnc3s2)cc1 | > 100 | 71.8 | 24.6 | > 100 | > 100 | > 100 | 84 | 63.9 | > 100 | > 100 | > 100 | 85.7 | > 100 | 81.2 | > 100 |
| CN1CCc2c(sc3ncn(Nc4ccc(Cl)cc4)c(=N)c23)C1 | > 100 | > 100 | > 100 | > 100 | > 100 | > 100 | > 100 | > 100 | > 100 | > 100 | > 100 | > 100 | > 100 | > 100 | > 100 |
| C=CCOC(=O)N1c2ccc(O)cc2[C@@]23O[C@@]24[C@@H]1C#C/C=C\C#C[C@]3(O)C(OC)(OC)C[C@@H]4C | > 100 | > 100 | 27.4 | > 100 | 85.5 | 90.9 | 53.7 | 76.8 | > 100 | > 100 | > 100 | 98.2 | 82 | 74.6 | 77.6 |
| COC(=O)C(Cc1c[nH]c2ccccc12)NP(=O)(O)OCC1OC(n2cc(Br)c(=O)[nH]c2=O)CC1O (stereo not given) | > 100 | > 100 | > 100 | > 100 | > 100 | > 100 | > 100 | > 100 | > 100 | > 100 | > 100 | > 100 | > 100 | > 100 | > 100 |
| Cc1c2oc3c(C)ccc(C(=O)NC4C(=O)NC(C(C)C)C(=O)N5CC(O)CC5C(=O)N(C)CC(=O)N(C)C(C(C)C)C(=O)OC4C)c3nc-2c(C(=O)NC2C(=O)NC(C(C)C)C(=O)N3CC(O)CC3C(=O)N(C)CC(=O)N(C)C(C(C)C)C(=O)OC2C)c(N)c1=O (stereo not given) (I: TV[Hyp][Sar][NMeV] / II: TV[Hyp][Sar][NMeV]; ester I:1-I:C, II:1-II:C; linker I:N-II:N via Actinocin(9to1); configuration not given here) | > 1 | > 1 | > 1 | > 1 | > 1 | > 1 | > 1 | > 1 | > 1 | > 1 | > 1 | > 1 | > 1 | > 1 | > 1 |
| CCN(CC)c1ccc(/C=C2\CCc3ccc([N+](=O)[O-])cc3C2=O)cc1 | > 100 | 7.55 | > 100 | > 30.7 | > 100 | > 100 | 0.744 | > 100 | > 30.1 | > 100 | > 100 | > 100 | > 100 | > 100 | > 100 |
| O=C(OC1CN2CCC1CC2)N(c1ccccc1)c1ccccc1 (stereo not given) | > 100 | > 100 | > 100 | > 100 | > 100 | > 100 | > 100 | > 100 | > 100 | > 100 | > 100 | > 100 | > 100 | > 100 | > 100 |
| O=c1c2cnccc2cc2c3ccccc3ccn12 | > 100 | > 100 | > 100 | > 100 | > 100 | > 100 | > 100 | > 100 | > 100 | > 100 | > 100 | > 100 | > 100 | > 100 | > 100 |
| O[C@@H]1CCC[C@@H]2NC[C@@H](c3ccc4c(c3)OCO4)[C@H]12 | > 100 | > 100 | > 100 | > 100 | > 100 | > 100 | > 100 | > 100 | > 100 | > 100 | > 100 | > 100 | > 100 | > 100 | > 100 |
| CCSc1nc(=S)n(-c2ccccc2)c(C)c1C(C)=O | > 100 | > 100 | > 100 | > 100 | > 100 | > 100 | > 100 | > 100 | > 100 | > 100 | > 100 | > 100 | > 100 | > 100 | > 100 |
| CC(C)(C)NC(=O)/C(=C\Sc1ccccc1)c1ccccc1 | > 100 | > 100 | > 100 | > 100 | > 100 | > 100 | > 100 | > 100 | > 100 | > 100 | > 100 | > 100 | > 100 | > 52.1 | > 100 |
| CCOC1NC(=O)Oc2cc3ccccc3cc21 (stereo not given) | > 100 | > 100 | > 100 | > 100 | > 100 | > 100 | > 100 | > 100 | > 100 | > 100 | > 100 | > 100 | > 100 | > 100 | > 100 |
| COC(=O)c1c(C)cccc1C1CN=NC12Cc1cc(C)cc(C)c1C2=O (stereo not given) | > 100 | > 100 | 44.6 | > 100 | > 100 | > 100 | > 100 | 63.8 | > 100 | > 100 | > 100 | 29.1 | > 100 | 41.2 | > 100 |
| N/C(=N\Nc1ccc(Cl)cc1)c1cnccn1 | > 100 | > 100 | 54.6 | > 100 | > 100 | > 100 | > 100 | > 100 | > 100 | > 100 | > 100 | > 100 | > 100 | > 100 | > 100 |
